# Where a SMILES comes first, the peptide text is derived from it. [ ]: non-standard residue; d: D form. The star is where a group is joined. X3 = O=C(O)CCCCCCCCCCCCCCCCCCC(=O)NCC1CCC(C(=O)N[C@@H](CCC(=O)NCCOCCOCC(=O)NCCOCCOCC(=O)NCCCC[C@H](NC(=O)COCCOCCNC(=O)COCCOCCNC(=O)CC[C@H](NC(=O)C2CCC(CNC(=O)CCCCCCCCCCCCCCCCCCC(=O)O)CC2)C(=O)O)C(=O)*)C(=O)O)CC1; X2 = O=C(O)CCCCCCCCCCCCCCCCCCC(=O)N1CCC(C(=O)N[C@@H](CCC(=O)NCCOCCOCC(=O)NCCOCCOCC(=O)NCCCC[C@H](NC(=O)COCCOCCNC(=O)COCCOCCNC(=O)CC[C@H](NC(=O)C2CCN(C(=O)CCCCCCCCCCCCCCCCCCC(=O)O)CC2)C(=O)O)C(=O)*)C(=O)O)CC1; X1 = O=C(O)CCCCCCCCCCCCCCCCCCC(=O)N[C@@H](CCC(=O)NCCOCCOCC(=O)NCCOCCOCC(=O)NCCCC[C@H](NC(=O)COCCOCCNC(=O)COCCOCCNC(=O)CC[C@H](NC(=O)CCCCCCCCCCCCCCCCCCC(=O)O)C(=O)O)C(=O)*)C(=O)O; Aib = CC(C)(N)C(=O)O
# Tests used:
# [1] = Pharmacokinetic study in minipigs (i.v.)
# Description: (§1) This is done in a pharmacokinetic (PK) study, where the terminal half-life of the derivative in question is determined. By terminal half-life is meant the time it takes to halve a certain plasma concentration in the terminal elimination phase.
# (§2) Male Göttingen minipigs were obtained from Ellegaard Göttingen Minipigs (Dalmose, Denmark) approximately 7-14 months of age and weighing approximately 16-35 kg were used in the studies. The minipigs were housed either individually (pigs with permanent catheters) or in a group and fed restrictedly once or twice daily with SDS minipig diet (Special Diets Services, Essex, UK).
# (§3) After at least 2 weeks of acclimatisation two permanent central venous catheters were implanted in vena cava caudalis or cranialis in each animal. The animals were allowed 1 week recovery after the surgery, and were then used for repeated pharmacokinetic studies with a suitable wash-out period between successive GLP-1 derivative dosings.
# (§4) Blood samples (for example 0.8 ml) were collected in EDTA buffer (8 mM) and then centrifuged at 4° C. and 1942 G for 10 minutes.
# (§5) Plasma was pipetted into Micronic tubes on dry ice, and kept at −20° C. until analysed for plasma concentration of the respective GLP-1 compound using LOCI. Individual plasma concentration-time profiles were analyzed by a non-compartmental pharmacokinetic method in Phoenix v. 6.2 (Pharsight Inc., Mountain View, Calif., USA), or other relevant software for PK analysis, and the resulting terminal half-lives (harmonic mean) determined.
# [2] = in vivo; settings: male, Göttingen, minipig, iv
# Description: as §1, §2, §3, §4, §5
Compound,half-life [2],other results
"CC[C@H](C)[C@H](NC(=O)[C@H](Cc1ccccc1)NC(=O)[C@H](CCC(=O)O)NC(=O)[C@H](CCCNC(=N)N)NC(=O)[C@H](C)NC(=O)[C@H](C)NC(=O)[C@H](CCC(N)=O)NC(=O)[C@H](CCC(=O)O)NC(=O)[C@H](CCC(=O)O)NC(=O)[C@H](CC(C)C)NC(=O)[C@H](Cc1ccc(O)cc1)NC(=O)[C@H](CO)NC(=O)[C@H](CO)NC(=O)[C@@H](NC(=O)[C@H](CC(=O)O)NC(=O)[C@H](CO)NC(=O)[C@@H](NC(=O)[C@H](Cc1ccccc1)NC(=O)[C@@H](NC(=O)CNC(=O)[C@H](CCC(=O)O)NC(=O)C(C)(C)NC(=O)[C@@H](N)Cc1c[nH]cn1)[C@@H](C)O)[C@@H](C)O)C(C)C)C(=O)N[C@@H](C)C(=O)N[C@@H](Cc1c[nH]c2ccccc12)C(=O)N[C@@H](CC(C)C)C(=O)N[C@H](C(=O)N[C@@H](CCCNC(=N)N)C(=O)NCC(=O)N[C@@H](CCCNC(=N)N)C(=O)NCC(=O)NCC(=O)N[C@@H](CO)C(=O)N[C@@H](CCCCNC(=O)[C@H](CCCCNC(=O)COCCOCCNC(=O)COCCOCCNC(=O)CC[C@H](NC(=O)C1CCC(CNC(=O)CCCCCCCCCCCCCCCCCCC(=O)O)CC1)C(=O)O)NC(=O)COCCOCCNC(=O)COCCOCCNC(=O)CC[C@H](NC(=O)C1CCC(CNC(=O)CCCCCCCCCCCCCCCCCCC(=O)O)CC1)C(=O)O)C(=O)O)C(C)C (stereo partly drawn) [Example 3, [Aib8,Glu22,Arg26,Arg34]-GLP-1-(7-37)-peptidyl-Gly-Ser-N{Epsilon}[(2S)-2,6-bis[[2-[2-[2-[[2-[2-[2-[[(4S)-4-carboxy-4-[[4-[(19-carboxynonadecanoylamino)methyl]cyclohexanecarbonyl]amino]butanoyl]amino]ethoxy]ethoxy]acetyl]amino]ethoxy]ethoxy]acetyl]amino]hexanoyl]Lys] (H-H[Aib]EGTFTSDVSSYLEEQAAREFIAWLVRGRGGSK(X3)-OH)",,"Terminal half-live ([1]; minipigs, i.v., 2 nmol/kg, harmonic mean): 122 h"
"CC[C@H](C)[C@H](NC(=O)[C@H](Cc1ccccc1)NC(=O)[C@H](CCC(=O)O)NC(=O)[C@H](CCCNC(=N)N)NC(=O)[C@H](C)NC(=O)[C@H](C)NC(=O)[C@H](CCC(N)=O)NC(=O)[C@H](CCC(=O)O)NC(=O)[C@H](CCC(=O)O)NC(=O)[C@H](CC(C)C)NC(=O)[C@H](Cc1ccc(O)cc1)NC(=O)[C@H](CO)NC(=O)[C@H](CO)NC(=O)[C@@H](NC(=O)[C@H](CC(=O)O)NC(=O)[C@H](CO)NC(=O)[C@@H](NC(=O)[C@H](Cc1ccccc1)NC(=O)[C@@H](NC(=O)CNC(=O)[C@H](CCC(=O)O)NC(=O)C(C)(C)NC(=O)[C@@H](N)Cc1c[nH]cn1)[C@@H](C)O)[C@@H](C)O)C(C)C)C(=O)N[C@@H](C)C(=O)N[C@@H](Cc1c[nH]c2ccccc12)C(=O)N[C@@H](CC(C)C)C(=O)N[C@H](C(=O)N[C@@H](CCCNC(=N)N)C(=O)NCC(=O)N[C@@H](CCCNC(=N)N)C(=O)N[C@@H](CCCCNC(=O)[C@H](CCCCNC(=O)COCCOCCNC(=O)COCCOCCNC(=O)CC[C@H](NC(=O)CCCCCCCCCCCCCCCCCCC(=O)O)C(=O)O)NC(=O)COCCOCCNC(=O)COCCOCCNC(=O)CC[C@H](NC(=O)CCCCCCCCCCCCCCCCCCC(=O)O)C(=O)O)C(=O)O)C(C)C [Example 6, N{Epsilon-37}-[(2S)-2,6-bis[[2-[2-[2-[[2-[2-[2-[[(4S)-4-carboxy-4-(19-carboxynonadecanoylamino)butanoyl]amino]ethoxy]ethoxy]acetyl]amino]ethoxy]ethoxy]acetyl]amino]hexanoyl]-[Aib8,Glu22,Arg26,Arg34,Lys37]-GLP-1-(7-37)-peptide]",128 h,
"CC[C@H](C)[C@H](NC(=O)[C@H](Cc1ccccc1)NC(=O)[C@H](CCC(=O)O)NC(=O)[C@H](CCCNC(=N)N)NC(=O)[C@H](C)NC(=O)[C@H](C)NC(=O)[C@H](CCC(N)=O)NC(=O)[C@H](CCC(=O)O)NC(=O)[C@H](CCC(=O)O)NC(=O)[C@H](CC(C)C)NC(=O)[C@H](Cc1ccc(O)cc1)NC(=O)[C@H](CO)NC(=O)[C@H](CO)NC(=O)[C@@H](NC(=O)[C@H](CC(=O)O)NC(=O)[C@H](CO)NC(=O)[C@@H](NC(=O)[C@H](Cc1ccccc1)NC(=O)[C@@H](NC(=O)CNC(=O)[C@H](CCC(=O)O)NC(=O)C(C)(C)NC(=O)[C@@H](N)Cc1c[nH]cn1)[C@@H](C)O)[C@@H](C)O)C(C)C)C(=O)N[C@@H](C)C(=O)N[C@@H](Cc1c[nH]c2ccccc12)C(=O)N[C@@H](CC(C)C)C(=O)N[C@H](C(=O)N[C@@H](CCCNC(=N)N)C(=O)NCC(=O)N[C@@H](CCCNC(=N)N)C(=O)NCC(=O)N[C@@H](CCCCNC(=O)[C@H](CCCCNC(=O)COCCOCCNC(=O)COCCOCCNC(=O)CC[C@H](NC(=O)CCCCCCCCCCCCCCCCCCC(=O)O)C(=O)O)NC(=O)COCCOCCNC(=O)COCCOCCNC(=O)CC[C@H](NC(=O)CCCCCCCCCCCCCCCCCCC(=O)O)C(=O)O)C(=O)O)C(C)C [Example 9, N{Alpha}([Aib8,Glu22,Arg26,Arg34]-GLP-1-(7-37)-peptidyl)-N{Epsilon}[(2S)-2,6-bis[[2-[2-[2-[[2-[2-[2-[[(4S)-4-carboxy-4-(19-carboxynonadecanoylamino)butanoyl]amino]ethoxy]ethoxy]acetyl]amino]ethoxy]ethoxy]acetyl]amino]hexanoyl]Lys] (H-H[Aib]EGTFTSDVSSYLEEQAAREFIAWLVRGRGK(X1)-OH; N-terminus and C-terminus assumed)",131 h,
"CC[C@H](C)[C@H](NC(=O)[C@H](Cc1ccccc1)NC(=O)[C@H](CCC(=O)O)NC(=O)[C@H](CCCNC(=N)N)NC(=O)[C@H](C)NC(=O)[C@H](C)NC(=O)[C@H](CCC(N)=O)NC(=O)[C@H](CCC(=O)O)NC(=O)[C@H](CCC(=O)O)NC(=O)[C@H](CC(C)C)NC(=O)[C@H](Cc1ccc(O)cc1)NC(=O)[C@H](CO)NC(=O)[C@H](CO)NC(=O)[C@@H](NC(=O)[C@H](CC(=O)O)NC(=O)[C@H](CO)NC(=O)[C@@H](NC(=O)[C@H](Cc1ccccc1)NC(=O)[C@@H](NC(=O)CNC(=O)[C@H](CCC(=O)O)NC(=O)C(C)(C)NC(=O)[C@@H](N)Cc1c[nH]cn1)[C@@H](C)O)[C@@H](C)O)C(C)C)C(=O)N[C@@H](C)C(=O)N[C@@H](Cc1c[nH]c2ccccc12)C(=O)N[C@@H](CC(C)C)C(=O)N[C@H](C(=O)N[C@@H](CCCNC(=N)N)C(=O)NCC(=O)N[C@@H](CCCNC(=N)N)C(=O)NCC(=O)N[C@@H](CCCCNC(=O)[C@H](CCCCNC(=O)COCCOCCNC(=O)COCCOCCNC(=O)CC[C@H](NC(=O)C1CCN(C(=O)CCCCCCCCCCCCCCCCCCC(=O)O)CC1)C(=O)O)NC(=O)COCCOCCNC(=O)COCCOCCNC(=O)CC[C@H](NC(=O)C1CCN(C(=O)CCCCCCCCCCCCCCCCCCC(=O)O)CC1)C(=O)O)C(=O)O)C(C)C [Example 18, N{Alpha}([Aib8,Glu22,Arg26,Arg34]-GLP-1-(7-37)-peptidyl)-N{Epsilon}[(2S)-2,6-bis[[2-[2-[2-[[2-[2-[2-[[(4S)-4-carboxy-4-[[1-(19-carboxynonadecanoyl)piperidine-4-carbonyl]amino]butanoyl]amino]ethoxy]ethoxy]acetyl]amino]ethoxy]ethoxy]acetyl]amino]hexanoyl]Lys] (H-H[Aib]EGTFTSDVSSYLEEQAAREFIAWLVRGRGK(X2)-OH)",,"half-life ([1]; male, Göttingen, minipig, plasma, iv, 15 nmol/kg): 140 h"
